Experimental data published in PubChem BioAssay (NCI).
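Growth conditions: 96-well plates. Treatment: test compound, 48 hours, 5 concentrations. Analysis: linear interpolation between bracketing concentrations; unreached endpoints set to highest concentration. At the GI50, growth is halved. TGI denotes the concentration required for complete inhibition of growth.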

Columns and labels:
Experiment in all cases: inhibition of tumour cell growth, NCI panel, 48 h
786-0 renal = test system: 786-0 renal
A549 NSCLC = test system: A549 NSCLC
ACHN renal = test system: ACHN renal
BT-549 breast = test system: BT-549 breast
CCRF-CEM leukemia = test system: CCRF-CEM leukemia
COLO 205 colon = test system: COLO 205 colon
DU-145 prostate = test system: DU-145 prostate
EKVX NSCLC = test system: EKVX NSCLC
HCC-2998 colon = test system: HCC-2998 colon
HCT-15 colon = test system: HCT-15 colon
HOP-62 NSCLC = test system: HOP-62 NSCLC
HOP-92 NSCLC = test system: HOP-92 NSCLC
HS 578T breast = test system: HS 578T breast
HT29 colon = test system: HT29 colon
IGROV1 ovarian = test system: IGROV1 ovarian
K-562 leukemia = test system: K-562 leukemia
KM12 colon = test system: KM12 colon
LOX IMVI melanoma = test system: LOX IMVI melanoma
M14 melanoma = test system: M14 melanoma
MALME-3M melanoma = test system: MALME-3M melanoma
MDA-MB-231 breast = test system: MDA-MB-231 breast
MOLT-4 leukemia = test system: MOLT-4 leukemia
NCI-H226 lung = test system: NCI-H226 lung
NCI-H23 lung = test system: NCI-H23 lung
NCI-H460 lung = test system: NCI-H460 lung
NCI/ADR-RES ovarian = test system: NCI/ADR-RES ovarian
OVCAR-4 ovarian = test system: OVCAR-4 ovarian
OVCAR-5 ovarian = test system: OVCAR-5 ovarian
OVCAR-8 ovarian = test system: OVCAR-8 ovarian
PC-3 prostate = test system: PC-3 prostate
RPMI-8226 leukemia = test system: RPMI-8226 leukemia
RXF 393 renal = test system: RXF 393 renal
SF-268 CNS = test system: SF-268 CNS
SF-295 CNS = test system: SF-295 CNS
SF-539 CNS = test system: SF-539 CNS
SK-MEL-2 melanoma = test system: SK-MEL-2 melanoma
SK-MEL-28 melanoma = test system: SK-MEL-28 melanoma
SK-MEL-5 melanoma = test system: SK-MEL-5 melanoma
SK-OV-3 ovarian = test system: SK-OV-3 ovarian
SN12C renal = test system: SN12C renal
SNB-19 CNS = test system: SNB-19 CNS
SR leukemia = test system: SR leukemia
SW-620 colon = test system: SW-620 colon
TK-10 renal = test system: TK-10 renal
U251 CNS = test system: U251 CNS
UACC-257 melanoma = test system: UACC-257 melanoma
UO-31 renal = test system: UO-31 renal

## COc1cc(C(C)c2ccc3c(ccn3C)c2)cc(OC)c1OC (centres undefined)
786-0 renal
  GI50: 28.8 nM
  TGI: 26.7 µM
A549 NSCLC
  GI50: 23.3 nM
  TGI: > 100 µM
ACHN renal
  GI50: 17.2 nM
  TGI: > 100 µM
BT-549 breast
  GI50: 23.1 nM
  TGI: 19.3 µM
CCRF-CEM leukemia
  GI50: 30.7 nM
  TGI: > 100 µM
COLO 205 colon
  GI50: < 10 nM
  TGI: 46.1 nM
DU-145 prostate
  GI50: 34.3 nM
  TGI: > 100 µM
EKVX NSCLC
  GI50: 67.4 nM
  TGI: > 100 µM
HCC-2998 colon
  GI50: 27.6 nM
  TGI: > 100 µM
HCT-15 colon
  GI50: 10.6 nM
  TGI: > 100 µM
HOP-62 NSCLC
  GI50: 38.5 nM
  TGI: > 100 µM
HOP-92 NSCLC
  GI50: 25.1 nM
  TGI: 45.4 µM
HS 578T breast
  GI50: 14.8 nM
  TGI: > 100 µM
HT29 colon
  GI50: < 10 nM
  TGI: 14.2 µM
IGROV1 ovarian
  GI50: 29.1 nM
  TGI: > 100 µM
K-562 leukemia
  GI50: < 10 nM
  TGI: > 100 µM
KM12 colon
  GI50: < 10 nM
  TGI: 60.2 µM
LOX IMVI melanoma
  GI50: 20.7 nM
  TGI: > 100 µM
M14 melanoma
  GI50: < 10 nM
  TGI: 22 µM
MALME-3M melanoma
  GI50: 11.6 µM
  TGI: 63.3 µM
MDA-MB-231 breast
  GI50: 55.1 nM
  TGI: 34.8 µM
MOLT-4 leukemia
  GI50: 44.9 nM
  TGI: > 100 µM
NCI-H226 lung
  GI50: 10.9 µM
  TGI: 57.3 µM
NCI-H23 lung
  GI50: 26.8 nM
  TGI: > 100 µM
NCI-H460 lung
  GI50: 11.7 nM
  TGI: > 100 µM
NCI/ADR-RES ovarian
  GI50: < 10 nM
  TGI: > 100 µM
OVCAR-4 ovarian
  GI50: 414 nM
  TGI: > 100 µM
OVCAR-5 ovarian
  GI50: 55.9 nM
  TGI: > 100 µM
OVCAR-8 ovarian
  GI50: 36.3 nM
  TGI: 38.5 µM
PC-3 prostate
  GI50: 17.1 nM
  TGI: > 100 µM
RPMI-8226 leukemia
  GI50: 36.2 nM
  TGI: 22.6 µM
RXF 393 renal
  GI50: < 10 nM
  TGI: > 100 µM
SF-268 CNS
  GI50: 39.3 nM
  TGI: > 100 µM
SF-295 CNS
  GI50: < 10 nM
  TGI: 32.5 µM
SF-539 CNS
  GI50: < 10 nM
  TGI: 15.2 µM
SK-MEL-2 melanoma
  GI50: 98.4 nM
  TGI: 95.8 µM
SK-MEL-28 melanoma
  GI50: 8.09 µM
  TGI: > 100 µM
SK-MEL-5 melanoma
  GI50: < 10 nM
  TGI: 391 nM
SK-OV-3 ovarian
  GI50: < 10 nM
  TGI: 60.7 µM
SN12C renal
  GI50: 67.1 nM
  TGI: > 100 µM
SNB-19 CNS
  GI50: 40.5 nM
  TGI: > 100 µM
SR leukemia
  GI50: < 10 nM
  TGI: > 100 µM
SW-620 colon
  GI50: < 10 nM
  TGI: > 100 µM
TK-10 renal
  GI50: 16.5 µM
  TGI: 92.6 µM
U251 CNS
  GI50: < 10 nM
  TGI: 39 µM
UACC-257 melanoma
  GI50: 19.4 µM
  TGI: 77.6 µM
UO-31 renal
  GI50: 189 nM
  TGI: 62.2 µM
